Data published in ChEMBL document CHEMBL4400538, “Discovery of Carboline Derivatives as Potent Antifungal Agents for the Treatment of Cryptococcal Meningitis” (J Med Chem, 2019).
The source made the active and inactive calls. No cut-off for these calls is given here.

Legend:
Cryptococcus neoformans [1] = assay: Antifungal activity against Cryptococcus neoformans H99 after 48 hrs by growth curve assay; type: functional
Nakaseomyces glabratus = assay: Antifungal activity against Candida glabrata 8535 after 48 hrs by spectrophotometery; type: functional; conditions: Nakaseomyces glabratus, 8535, 48 h
Cryptococcus neoformans [2] = assay: Antifungal activity against Cryptococcus neoformans H99 after 72 hrs by growth curve assay; type: functional; conditions: var grubii H99 
Candida albicans [3] = assay: Antifungal activity against Candida albicans 7781 after 48 hrs by spectrophotometery; type: functional; conditions: Candida albicans, 7781, 48 h
Candida albicans [4] = assay: Antifungal activity against Candida albicans 0304103 after 48 hrs by spectrophotometery; type: functional; conditions: Candida albicans, 0304103, 48 h
Candida parapsilosis = assay: Antifungal activity against Candida parapsilosis 5008 after 48 hrs by spectrophotometery; type: functional; conditions: Lodderomyces parapsilosis, 5008, 48 h
Aspergillus fumigatus = assay: Antifungal activity against Aspergillus fumigatus 7544 after 48 hrs by spectrophotometery; type: functional; conditions: Aspergillus fumigatus, 7544, 48 h
Trichophyton rubrum = assay: Antifungal activity against Trichophyton rubrum TIA after 48 hrs by spectrophotometery; type: functional
Nannizzia gypsea = assay: Antifungal activity against Microsporum gypseum MZC after 48 hrs by spectrophotometery; type: functional
Cryptococcus neoformans [5] = assay: Antifungal activity against Cryptococcus neoformans ATCC 34877 after 72 hrs by spectrophotometery; type: functional; conditions: ATCC 34877, 72 h
[6] = Protein binding in mouse plasma; type: ADME, cell-free
HUVEC = assay: Cytotoxicity against human HUVEC; type: cell-based
Cryptococcus neoformans [7] = assay: Antibiofilm activity against Cryptococcus neoformans H99 at 16 ug/ml after 90 mins by XTT assay; type: functional, organism-based; conditions: var grubii H99
Cryptococcus neoformans [8] = assay: Antibiofilm activity against Cryptococcus neoformans H99 assessed as inhibition of cellular surface hydrophobicity at 5 ug/ml incubated for 24 hrs by water-hydrocarbon two-phase assay; type: functional, organism-based; conditions: var grubii H99
Cryptococcus neoformans [9] = assay: Inhibition of melanin production in Cryptococcus neoformans H99 at 2.5 ug/ml; type: functional, organism-based; conditions: var grubii H99
Cryptococcus neoformans [10] = assay: Inhibition of urease production in Cryptococcus neoformans H99 at 10 ug/ml; type: functional, organism-based; conditions: var grubii H99
[11] = Half life in ICR mouse liver microsomes at 1 uM measured up to 45 mins in presence of NADPH by LC-MS/MS analysis; type: ADME, Microsome
[12] = Clearance in ICR mouse liver microsomes at 1 uM measured up to 45 mins in presence of NADPH by LC-MS/MS analysis; type: ADME, Microsome; conditions: 0.75 h
[13] = Effective permeability of the compound after 12 hrs by PAMPA; type: ADME; conditions: read-out: Peff
Cryptococcus neoformans [14] = assay: Antifungal activity against Cryptococcus neoformans H99 infected in ICR mouse assessed as reduction in brain fungal load at 20 mg/kg, po administered daily for 5 days; type: functional, organism-based; conditions: var grubii H99
Cryptococcus neoformans [15] = assay: Antifungal activity against Cryptococcus neoformans H99 assessed as cell wall collapse at 4 ug/ml after 24 hrs by TEM analysis; type: functional, organism-based; conditions: var grubii H99
Cryptococcus neoformans [16] = assay: Antifungal activity against Cryptococcus neoformans H99 assessed as formation of abnormally shaped cells at 4 ug/ml after 24 hrs by TEM analysis; type: functional, organism-based; conditions: var grubii H99
Cryptococcus neoformans [17] = assay: Antifungal activity against Cryptococcus neoformans H99 assessed as nuclear pyknosis at 4 ug/ml after 24 hrs by TEM analysis; type: functional, organism-based; conditions: var grubii H99
Cryptococcus neoformans [18] = assay: Induction of cell cycle arrest in Cryptococcus neoformans H99 assessed as accumulation at S phase at 1 to 2 ug/ml after 24 hrs by propidium iodide-staining based FACS analysis (reference value: 51.64%); type: functional, var grubii H99
Cryptococcus neoformans [19] = assay: Induction of cell cycle arrest in Cryptococcus neoformans H99 assessed as accumulation at G1 phase at 1 to 2 ug/ml after 24 hrs by propidium iodide-staining based FACS analysis (reference value: 44.50%); type: functional, var grubii H99
Cryptococcus neoformans [20] = assay: Induction of cell cycle arrest in Cryptococcus neoformans H99 assessed as accumulation at G2 phase at 1 to 2 ug/ml after 24 hrs by propidium iodide-staining based FACS analysis (reference value: 3.86%); type: functional, var grubii H99
Cryptococcus neoformans [21] = assay: Antifungal activity against Cryptococcus neoformans H99 assessed as up-regulation of CDK1 expression after 24 hrs by Western blot analysis; type: functional, organism-based; conditions: var grubii H99
Cryptococcus neoformans [22] = assay: Antifungal activity against Cryptococcus neoformans H99 assessed as up-regulation of cyclin B1 expression after 24 hrs by Western blot analysis; type: functional, organism-based; conditions: var grubii H99
Cryptococcus neoformans [23] = assay: Antifungal activity against Cryptococcus neoformans H99 assessed as up-regulation of Cdc25C expression after 24 hrs by Western blot analysis; type: functional, organism-based; conditions: var grubii H99
Cryptococcus neoformans [24] = assay: Antifungal activity against Cryptococcus neoformans H99 assessed as induction of gamma-H2AX foci at 2 ug/ml after 48 hrs by Hoechst-33342 staining based fluorescence microscopy; type: functional, organism-based; conditions: var grubii H99
[25] = Solubility of the compound; type: physicochemical
Cryptococcus neoformans [26] = assay: Antifungal activity against Cryptococcus neoformans H99 assessed as inhibition of microbial growth at 8 ug/ml after 12 to 48 hrs by growth curve assay; type: functional; conditions: var grubii H99, read-out: GI
Cryptococcus neoformans [27] = assay: Antifungal activity against Cryptococcus neoformans H99 infected in ICR mouse assessed as reduction in brain fungal load at 10 mg/kg, ip administered once daily; type: functional, organism-based; conditions: var grubii H99
Cryptococcus neoformans [28] = assay: Induction of up-regulation of APC/C gene expression in Cryptococcus neoformans H99 at 2 ug/ml after 24 hrs by RNA-seq analysis based KEGG pathway enrichment analysis; type: functional, organism-based; conditions: var grubii H99
Cryptococcus neoformans [29] = assay: Induction of up-regulation of PNAC gene expression in Cryptococcus neoformans H99 at 2 ug/ml after 24 hrs by RNA-seq analysis based KEGG pathway enrichment analysis; type: functional, organism-based; conditions: var grubii H99
Cryptococcus neoformans [30] = assay: Induction of up-regulation of PLK1 gene expression in Cryptococcus neoformans H99 at 2 ug/ml after 24 hrs by RNA-seq analysis based KEGG pathway enrichment analysis; type: functional, organism-based; conditions: var grubii H99
Cryptococcus neoformans [31] = assay: Induction of up-regulation of MCM gene expression in Cryptococcus neoformans H99 at 2 ug/ml after 24 hrs by RNA-seq analysis based KEGG pathway enrichment analysis; type: functional, organism-based; conditions: var grubii H99
Cryptococcus neoformans [32] = assay: Induction of up-regulation of ORC gene expression in Cryptococcus neoformans H99 at 2 ug/ml after 24 hrs by RNA-seq analysis based KEGG pathway enrichment analysis; type: functional, organism-based; conditions: var grubii H99
Cryptococcus neoformans [33] = assay: Induction of up-regulation of Mps1 gene expression in Cryptococcus neoformans H99 at 2 ug/ml after 24 hrs by RNA-seq analysis based KEGG pathway enrichment analysis; type: functional, organism-based; conditions: var grubii H99
Cryptococcus neoformans [34] = assay: Induction of up-regulation of Hs17 gene expression in Cryptococcus neoformans H99 at 2 ug/ml after 24 hrs by RNA-seq analysis based KEGG pathway enrichment analysis; type: functional, organism-based; conditions: var grubii H99
Cryptococcus neoformans [35] = assay: Induction of up-regulation of Ycg1 gene expression in Cryptococcus neoformans H99 at 2 ug/ml after 24 hrs by RNA-seq analysis based KEGG pathway enrichment analysis; type: functional, organism-based; conditions: var grubii H99
Cryptococcus neoformans [36] = assay: Induction of up-regulation of Mob1 gene expression in Cryptococcus neoformans H99 at 2 ug/ml after 24 hrs by RNA-seq analysis based KEGG pathway enrichment analysis; type: functional, organism-based; conditions: var grubii H99
Cryptococcus neoformans [37] = assay: Induction of up-regulation of Lig1 gene expression in Cryptococcus neoformans H99 at 2 ug/ml after 24 hrs by RNA-seq analysis based KEGG pathway enrichment analysis; type: functional, organism-based; conditions: var grubii H99
Cryptococcus neoformans [38] = assay: Induction of up-regulation of DNA polymerase alpha2 gene expression in Cryptococcus neoformans H99 at 2 ug/ml after 24 hrs by RNA-seq analysis based KEGG pathway enrichment analysis; type: functional, organism-based; conditions: var grubii H99
Cryptococcus neoformans [39] = assay: Induction of up-regulation of PCNA gene expression in Cryptococcus neoformans H99 at 2 ug/ml after 24 hrs by RNA-seq analysis based KEGG pathway enrichment analysis; type: functional, organism-based; conditions: var grubii H99
Cryptococcus gattii = assay: Antifungal activity against Cryptococcus gattii ATCC 14116 after 72 hrs by spectrophotometery; conditions: ATCC 14116, 72 h

MIC80 (Cryptococcus neoformans [1]; var grubii H99 ): 0.25 µg/mL | MIC80 (Nakaseomyces glabratus): 1 µg/mL | MIC80 (Cryptococcus neoformans [2]): 0.5 µg/mL | MIC80 (Candida albicans [3]): 4 µg/mL | MIC80 (Candida albicans [4]): 2 µg/mL | MIC80 (Candida parapsilosis): 2 µg/mL | MIC80 (Aspergillus fumigatus): 16 µg/mL | MIC80 (Trichophyton rubrum): 4 µg/mL | MIC80 (Nannizzia gypsea): 8 µg/mL | MIC80 (Cryptococcus neoformans [5]): 0.5 µg/mL | PPB [6]: Active | half-life at 1 µM [11]: 1.17 h | scaled CLint [12]: 78 mL/min/kg | Papp at 12 h [13]: 1.8 ×10⁻⁶ cm/s | solubility [25]: 54.6 µg/mL | Activity (Cryptococcus neoformans [38]): Active | MIC80 (Cryptococcus gattii): 1 µg/mL
SMILES: Clc1ccc(OCCCn2c3c(c4cc(Cl)ccc42)CCNC3)cc1.O=C(O)C(F)(F)F
Activity (Cryptococcus neoformans [1]; var grubii H99): Dose-dependent effect | Activity (HUVEC): Non-Toxic | Activity (Cryptococcus neoformans [7]): Active | Activity (Cryptococcus neoformans [8]): Active | inhibition (Cryptococcus neoformans [9]): Active | inhibition (Cryptococcus neoformans [10]): inactive | Activity (Cryptococcus neoformans [14]): Active | Activity (Cryptococcus neoformans [15]): Active | Activity (Cryptococcus neoformans [16]): Active | Activity (Cryptococcus neoformans [17]): Active | Activity (Cryptococcus neoformans [18]): 53.21% | Activity (Cryptococcus neoformans [19]): 36.45% | Activity (Cryptococcus neoformans [20]): 10.34% | Activity (Cryptococcus neoformans [21]): Dose-dependent effect | Activity (Cryptococcus neoformans [22]): Dose-dependent effect | Activity (Cryptococcus neoformans [23]): Dose-dependent effect | Activity (Cryptococcus neoformans [24]): Active | inhibition of growth at 8 µg/mL (Cryptococcus neoformans [26]): 100% | Activity (Cryptococcus neoformans [27]): Active | Activity (Cryptococcus neoformans [28]): Active | Activity (Cryptococcus neoformans [29]): Active | Activity (Cryptococcus neoformans [30]): Active | Activity (Cryptococcus neoformans [31]): Active | Activity (Cryptococcus neoformans [32]): Active | Activity (Cryptococcus neoformans [33]): Active | Activity (Cryptococcus neoformans [34]): Active | Activity (Cryptococcus neoformans [35]): Active | Activity (Cryptococcus neoformans [36]): Active | Activity (Cryptococcus neoformans [37]): Active | Activity (Cryptococcus neoformans [39]): Active
